Read-outs that look alike come from different tables or passages of the source.
Assays:
human DGKα = molecular target: T1, human DGKα (Homo sapiens, UniProt P23743); assay: DGKα LIPGLO assay (extruded liposome substrate), in vitro DGK inhibition; type: biochemical; settings: read-out: DGKa LIPGLO IC50
T1 construct: TVMV protease cleavage site (C); Hexa-His (C); made in house; host or cells: Sf9 insect cells (baculovirus, Bac-to-Bac)

Human venous whole blood = assay: Human whole blood IFN-γ assay; type: cell-based; settings: human whole blood, read-out: INFg Whole Blood Normalized Agonist EC50;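 note: blood from healthy donors exposed to compound for 1 h before stimulation with anti-CD3 and anti-CD28 at 1 µg/mL each, IFN-γ quantified in supernatant by AlphaLISA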
naïve human CD8 T cells = assay: Human CD8 T cells IFN-γ assay; type: cell-based; settings: read-out: HuCD8 INFG Normalized EC50;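 note: Naïve human CD8 T cells stimulated with plate-bound anti-CD3 and soluble anti-CD28, IFN-γ in supernatant quantified by AlphaLISA and converted to pg/mL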
human DGKζ = molecular target: T2, human DGKζ (Homo sapiens, UniProt Q13574); assay: DGKζ LIPGLO assay (extruded liposome substrate), in vitro DGK inhibition; type: biochemical; settings: read-out: DGKz LIPGLO IC50
T2 construct: TVMV protease cleavage site (C); Hexa-His (C); made in house; host or cells: Sf9 insect cells (baculovirus, Bac-to-Bac)
T2 sequence (Q13574 with tags, fused parts or gaps isoform Q13574-4): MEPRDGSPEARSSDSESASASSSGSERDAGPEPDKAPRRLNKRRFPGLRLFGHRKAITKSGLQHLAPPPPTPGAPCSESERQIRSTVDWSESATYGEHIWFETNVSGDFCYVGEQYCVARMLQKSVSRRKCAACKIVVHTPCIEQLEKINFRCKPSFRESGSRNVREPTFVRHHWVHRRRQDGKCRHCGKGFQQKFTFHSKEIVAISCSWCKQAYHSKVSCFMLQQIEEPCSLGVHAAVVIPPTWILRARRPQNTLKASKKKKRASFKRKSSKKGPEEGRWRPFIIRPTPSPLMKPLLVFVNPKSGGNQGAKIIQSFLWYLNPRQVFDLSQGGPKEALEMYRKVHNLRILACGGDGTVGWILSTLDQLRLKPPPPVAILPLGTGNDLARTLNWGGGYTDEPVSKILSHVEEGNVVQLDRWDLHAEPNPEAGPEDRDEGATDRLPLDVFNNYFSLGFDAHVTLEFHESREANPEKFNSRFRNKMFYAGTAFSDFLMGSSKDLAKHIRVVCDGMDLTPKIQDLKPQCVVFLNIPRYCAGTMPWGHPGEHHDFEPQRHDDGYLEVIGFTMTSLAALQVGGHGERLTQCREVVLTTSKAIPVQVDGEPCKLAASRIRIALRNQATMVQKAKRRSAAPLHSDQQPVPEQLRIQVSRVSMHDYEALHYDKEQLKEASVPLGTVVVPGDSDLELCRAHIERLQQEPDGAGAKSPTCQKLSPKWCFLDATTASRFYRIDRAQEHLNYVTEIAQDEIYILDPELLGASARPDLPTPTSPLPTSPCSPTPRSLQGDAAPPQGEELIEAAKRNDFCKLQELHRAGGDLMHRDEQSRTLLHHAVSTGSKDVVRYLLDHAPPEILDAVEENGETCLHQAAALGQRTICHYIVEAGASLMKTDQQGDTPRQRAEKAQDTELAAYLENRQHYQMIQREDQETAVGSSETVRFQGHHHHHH

[1] = anti-CD3 plus anti-CD28, 24 hours, 3 μM reference compound = 100% activation
[2] = Homo sapiens, T-cell, 20 h, naïve human CD8 T cells, anti-CD3 plus anti-CD28, 3 μM reference compound = 100% activation
[3] = Homo sapiens, 24 h, normalized to 3 μM reference compound with anti-CD3 plus anti-CD28 as 100% activation
[4] = Homo sapiens, T-cell, 20 h, normalized to 3 μM reference compound with anti-CD3 plus anti-CD28 as 100% activation
[5] = normalized to 3 μM reference compound with anti-CD3 plus anti-CD28 as 100% activation

T1 sequence (P23743 with tags, fused parts or gaps): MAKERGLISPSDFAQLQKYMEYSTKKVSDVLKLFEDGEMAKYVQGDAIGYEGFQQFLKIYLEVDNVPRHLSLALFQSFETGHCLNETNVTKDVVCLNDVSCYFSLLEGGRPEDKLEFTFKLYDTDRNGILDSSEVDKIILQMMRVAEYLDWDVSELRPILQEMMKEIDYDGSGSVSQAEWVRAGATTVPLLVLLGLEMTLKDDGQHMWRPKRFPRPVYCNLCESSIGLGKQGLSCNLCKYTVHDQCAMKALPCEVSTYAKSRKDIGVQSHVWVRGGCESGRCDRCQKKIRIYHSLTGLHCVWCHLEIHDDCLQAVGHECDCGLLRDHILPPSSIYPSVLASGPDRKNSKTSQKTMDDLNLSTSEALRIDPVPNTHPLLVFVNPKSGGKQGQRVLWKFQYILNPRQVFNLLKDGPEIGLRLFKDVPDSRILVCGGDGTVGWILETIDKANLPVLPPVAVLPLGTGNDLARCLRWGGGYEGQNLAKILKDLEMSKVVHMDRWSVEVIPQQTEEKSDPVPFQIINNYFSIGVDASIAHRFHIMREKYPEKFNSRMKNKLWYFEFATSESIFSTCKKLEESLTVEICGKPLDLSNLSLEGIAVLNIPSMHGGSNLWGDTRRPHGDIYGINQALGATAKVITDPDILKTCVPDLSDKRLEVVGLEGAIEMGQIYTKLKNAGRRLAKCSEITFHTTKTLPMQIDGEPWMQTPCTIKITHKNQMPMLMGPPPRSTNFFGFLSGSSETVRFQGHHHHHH

Row | Structure (SMILES) | IC50 (human DGKα; DGKα liposome (LIPGLO) assay) [nM] | IC50 (human DGKζ; DGKζ liposome (LIPGLO) assay) [nM] | IC50 (human DGKα; liposome (LIPGLO) assay) [nM] | IC50 (human DGKζ; liposome (LIPGLO) assay) [nM] | EC50 (Human venous whole blood; [1]) [nM] | EC50 (naïve human CD8 T cells; [2]) [nM] | EC50 (Human venous whole blood; [3]) [nM] | EC50 (naïve human CD8 T cells; [4]) [nM] | EC50 (Human venous whole blood; [5]) [nM] | EC50 (naïve human CD8 T cells; [5]) [nM]
1 | C[C@@H]1CN(c2c(C#N)c(=O)n(C)c3ccc(C#N)nc23)CCN1C(c1ccc(F)cc1)c1ccc(C(F)(F)F)cn1 (single isomer, unassigned) [Example 896] | 190 | 600 |  |  | 210 | 150 |  |  |  | 
2 | C[C@@H]1CN(c2c(C#N)c(=O)n(C)c3ccc(C#N)nc23)CCN1C(c1ccc(F)cc1)c1ccc(F)cn1 (some centres unmarked) [Example 903] | 630 | 3500 |  |  | 730 | 140 |  |  |  | 
3 | C[C@@H]1CN(c2cc(=O)n(C)c3ccc(C#N)nc23)[C@@H](C)CN1C(c1ccccc1)c1cc(F)cc(F)c1 (stereo partly drawn) [Example 288, 8-[(2S,5R)-4-[(3,5-difluorophenyl)(phenyl)methyl]-2,5-dimethylpiperazin-1-yl]-5-methyl-6-oxo-5,6-dihydro-1,5-naphthyridine-2-carbonitrile] |  |  | 2000 | 2200 |  |  | 810 | 26 |  | 
4 | C[C@@H]1CN(c2c(C#N)c(=O)n(C)c3ccc(C#N)nc23)CCN1C(c1ccc(F)cc1)c1cccc(C(F)(F)F)n1 (single isomer, unassigned) [Example 922] | 1500 | 780 |  |  | 430 | 160 |  |  |  | 
5 | Cc1cccc(F)c1CN1C[C@H](C)N(c2cc(=O)n(C)c3ccc(C#N)nc23)C[C@H]1C [Example 255, 8-[(2S,5R)-4-[(2-fluoro-6-methylphenyl)methyl]-2,5-dimethylpiperazin-1-yl]-5-methyl-6-oxo-5,6-dihydro-1,5-naphthyridine-2-carbonitrile] |  |  | 770 | 1700 |  |  | 3200 | 180 |  | 
6 | CC(c1ccc(F)cc1)N1C[C@H](C)N(c2cc(=O)n(C)c3ccc(C#N)nc23)C[C@H]1C (single isomer, unassigned) [Example 309] |  |  | 720 | 490 |  |  |  |  | 880 | 36
7 | C[C@@H]1CN(c2cc(=O)n(C)c3ccc(C#N)nc23)[C@@H](C)CN1C(c1ccc(F)cc1)c1ncccc1F (single isomer, unassigned) [Example 188] |  |  | 690 | 3800 |  |  |  |  | 660 | 14
8 | C[C@@H]1CN(c2c(F)c(=O)n(C)c3ccc(C#N)nc23)[C@@H](C)CN1C(c1ccc(F)cc1)c1ccc(C#N)cc1 (stereo partly drawn) [Example 328, 8-((2S,5R)-4-((4-cyanophenyl)(4-fluorophenyl)methyl)-2,5-dimethylpiperazin-1-yl)-7-fluoro-5-methyl-6-oxo-5,6-dihydro-1,5-naphthyridine-2-carbonitrile] |  |  | 1200 | 2600 |  |  |  |  | 1000 | 6000
9 | Cc1ccnc(C(c2ccc(F)cc2)N2C[C@H](C)N(c3cc(=O)n(C)c4ccc(C#N)nc34)C[C@H]2C)c1 (single isomer, unassigned) [Example 455] |  |  | 1000 | 2400 |  |  | 740 | 97 |  | 
10 | C[C@@H]1CN(c2cc(=O)n(C)c3ccc(C#N)nc23)[C@@H](C)CN1C(c1ccc(F)cn1)c1ccc(F)cc1F (single isomer, unassigned) [Example 685] |  |  | 300 | 1000 |  |  |  | 12 | 100 | 
11 | Cc1ccc(C(c2ccc(F)cc2)N2CCN(c3c(C#N)c(=O)n(C)c4ccc(C#N)nc34)C[C@H]2C)cc1 (some centres unmarked) [Example 889] | 1300 | 370 |  |  | 670 | 220 |  |  |  | 
12 | C[C@@H]1CN(c2cc(=O)n(C)c3ccc(C#N)nc23)[C@@H](C)CN1C(c1ccccc1)c1ccc(OC(F)(F)F)cc1 (single isomer, unassigned) [Example 222] |  |  | 290 | 710 |  |  |  |  | 680 | 46
13 | CC[C@H]1CN(C(c2ccc(F)cc2)c2ccc(Cl)cc2)[C@H](CC)CN1c1cc(=O)n(C)c2ccc(C#N)nc12 (some centres unmarked) [Example 1031] |  |  | 260 | 240 |  |  | 85 | 1.3 |  | 
14 | C[C@@H]1CN(c2cc(=O)n(C)c3ccc(C#N)nc23)[C@@H](C)CN1C(c1ccccc1)c1cccc(F)c1 (stereo partly drawn) [Example 296, 8-[(2S,5R)-4-[(3-fluorophenyl)(phenyl)methyl]-2,5-dimethylpiperazin-1-yl]-5-methyl-6-oxo-5,6-dihydro-1,5-naphthyridine-2-carbonitrile] |  |  | 630 | 900 |  |  | 1200 | 400 |  | 
15 | CCc1cc(F)ccc1C(c1ccc(F)cc1)N1C[C@H](C)N(c2cc(=O)n(C)c3ccc(C#N)nc23)C[C@H]1C (single isomer, unassigned) [Example 228] |  |  | 58000 | 1400 |  |  |  |  | 2800 | 31
16 | C[C@@H]1CN(c2cc(=O)n(C)c3ccc(C#N)nc23)[C@@H](C)CN1Cc1ccc(C(F)(F)F)nc1Cl [Example 281, 8-[(2S,5R)-4-{[2-chloro-6-(trifluoromethyl)pyridin-3-yl]methyl}-2,5-dimethylpiperazin-1-yl]-5-methyl-6-oxo-5,6-dihydro-1,5-naphthyridine-2-carbonitrile] |  |  | 2800 | 4400 |  |  | 2700 | 560 |  | 

Further molecules by falling IC50 (human DGKα; liposome (LIPGLO) assay), results first:

Row | IC50 (human DGKα; DGKα liposome (LIPGLO) assay) [nM] | IC50 (human DGKζ; DGKζ liposome (LIPGLO) assay) [nM] | IC50 (human DGKα; liposome (LIPGLO) assay) [nM] | IC50 (human DGKζ; liposome (LIPGLO) assay) [nM] | Structure (SMILES) | EC50 (Human venous whole blood; [1]) [nM] | EC50 (naïve human CD8 T cells; [2]) [nM] | EC50 (Human venous whole blood; [3]) [nM] | EC50 (naïve human CD8 T cells; [4]) [nM] | EC50 (Human venous whole blood; [5]) [nM] | EC50 (naïve human CD8 T cells; [5]) [nM]
17 |  |  | 250 | 1500 | C[C@@H]1CN(c2cc(=O)n(C)c3ccc(C#N)nc23)[C@@H](C)CN1Cc1ccc(F)cc1F [Example 277, 8-[(2S,5R)-4-[(2,4-difluorophenyl)methyl]-2,5-dimethylpiperazin-1-yl]-5-methyl-6-oxo-5,6-dihydro-1,5-naphthyridine-2-carbonitrile] |  |  | 840 | 66 |  | 
18 |  |  | 180 | 2100 | C[C@@H]1CN(c2cc(=O)n(C)c3ccc(C#N)nc23)[C@@H](C)CN1C(c1ccc(F)cc1)c1ccncn1 (single isomer, unassigned) [Example 392] |  |  | 330 | 66 |  | 
19 |  |  | 180 | 1300 | C[C@@H]1CN(c2cc(=O)n(C)c3ccc(C#N)nc23)[C@@H](C)CN1C(c1ccc(F)cc1)c1ncccc1F (single isomer, unassigned) [Example 187] |  |  |  |  | 1400 | 110
20 |  |  | 150 | 440 | CC[C@@H]1CN(c2cc(=O)n(C)c3ccc(C#N)nc23)[C@@H](C)CN1C(c1ccc(F)cc1)c1ncccc1F (some centres unmarked) [Example 1105] |  |  |  |  | 320 | 200
21 |  |  | 98 | 59 | CC[C@H]1CN(C(c2ccc(Cl)cc2)c2ccc(F)cn2)[C@H](CC)CN1c1cc(=O)n(C)c2ccc(C#N)nc12 (single isomer, unassigned) [Example 1033] |  |  | 120 |  |  | 190
22 |  |  | 39 | 150 | C[C@@H]1CN(c2cc(=O)n(C)c3ccc(C#N)nc23)[C@@H](C)CN1C(c1ccc(F)cc1)c1ccc(Cl)cn1 (single isomer, unassigned) [Example 211] |  |  | 800 | 29 |  | 
23 |  |  | 18 | 360 | CC[C@H]1CN(C(C)c2ccc(F)cc2)[C@H](C)CN1c1cc(=O)n(C)c2ccc(C#N)nc12 (single isomer, unassigned) [Example 1135] |  |  |  | 22 | 320 | 
